This note sets out measurements from patent publication US5998442A, “Benzo [B] thiophene compounds, and compositions for treating bone loss, and hyperlipidemia” (Eli Lilly and Company, priority 1997, dated 1999).

The structures appear in SMILES notation.

The test system of assay [1] is serum cholesterol, ovariectomized rats. Put plainly: Serum cholesterol in ovariectomized rats (4 days daily oral dosing). Type of assay: in vivo, rat (female Sprague Dawley). On the procedure:
(§1) In the examples illustrating the methods, a postmenopausal model was used in which effects of different treatments upon circulating lipids were determined.
(§2) Seventy-five day old female Sprague Dawley rats (weight range of 200 to 225 g) were obtained from Charles River Laboratories (Portage, Mich.). The animals were either bilaterally ovariectomized (OVX) or exposed to a Sham surgical procedure at Charles River Laboratories, and then shipped after one week. Upon arrival, they were housed in metal hanging cages in groups of 3 or 4 per cage and had ad libitum access to food (calcium content approximately 0.5%) and water for one week. Room temperature was maintained at 22.2°±1.70° C. with a minimum relative humidity of 40%. The photoperiod in the room was 12 hours light and 12 hours dark.
(§3) After a one week acclimation period (therefore, two weeks post-OVX) daily dosing with test compound was initiated. […] Animals were dosed daily for 4 days. Following the dosing regimen, animals were weighed and anesthetized with a ketamine: Xylazine (2:1, V:V) mixture and a blood sample was collected by cardiac puncture. The animals were then sacrificed by asphyxiation with CO2, the uterus was removed through a midline incision, and a wet uterine weight was determined.
Blood samples were allowed to clot at room temperature for 2 hours, and serum was obtained following centrifugation for 10 minutes at 3000 rpm. Serum cholesterol was determined using a Boehringer Mannheim Diagnostics high performance cholesterol assay. Briefly the cholesterol was oxidized to cholest-4-en-3-one and hydrogen peroxide. The hydrogen peroxide was then reacted with phenol and 4-aminophenazone in the presence of peroxidase to produce a p-quinone imine dye, which was read spectrophotemetrically at 500 nm. Cholesterol concentration was then calculated against a standard curve. The entire assay was automated using a Biomek Automated Workstation. […]
(§4) The data presented in Table 1 below reflects the response of 5 to 6 rats per treatment.

Assay [2] has as its system uterus, ovariectomized rats. Put plainly: Uterine weight in ovariectomized rats (4 days daily oral dosing). In kind it is in vivo, rat (female Sprague Dawley). As to the method:
as §1, §2, §3
This uterine response to estrogen is well recognized in the art.
as §4

The test system of assay [3] is Distal Femur Metaphysis, ovariectomized rats. Kind of assay: Osteoporosis Test Procedure: distal femur metaphysis X-ray image analysis. In kind it is in vivo, rat. The note with it: oral, 35 days; dose not given. On the procedure: (§5) Following the General Preparation Procedure, infra, the rats were treated daily for 35 days (6 rats per treatment group) and sacrificed by carbon dioxide asphyxiation on the 36th day. The 35 day time period was sufficient to allow maximal reduction in bone density, measured as described herein. At the time of sacrifice, the uteri were removed, dissected free of extraneous tissue, and the fluid contents were expelled before determination of wet weight in order to confirm estrogen deficiency associated with complete ovariectomy. […] The uteri were then placed in 10% neutral buffered formalin to allow for subsequent histological analysis. The right femurs were excised and digitilized x-rays generated and analyzed by an image analysis program (NIH image) at the distal metaphysis. The proximal aspect of the tibiae from these animals were also scanned by quantitative computed tomography. […] Distal femur metaphysis and proximal tibiae data presented in Tables 2 and 3 below, respectively are the results of formula I compound treatments compared to intact and ovariectomized test animals. Results are reported as percent protection relative to ovariectomy.

The subject of assay [4] is Proximal Tibiae, ovariectomized rats. Kind of assay: Osteoporosis Test Procedure: proximal tibiae quantitative computed tomography. To be noted: 35 days. In kind it is in vivo, rat. On the procedure: as §5
Assay [5] concerns bone, ovariectomized rats. Kind of assay: Osteoporosis Test Procedure: bone loss in ovariectomized rats (summary). To be noted: orally administered. In kind it is in vivo, rat. As to the method: as §5
Assay [6] concerns Uterine Eosinophil Peroxidase (EPO). Put plainly: Uterine Eosinophil Peroxidase (EPO) Assay in ovariectomized rats. In kind it is in vivo, rat (female Sprague Dawley). The arrangement: Uterine EPO (Vmax): unit not given here.
Source text: as §2, §3
Uteri were kept at 4° C. until time of enzymatic analysis. The uteri were then homogenized in 50 volumes of 50 mM Tris buffer (pH-8.0) containing 0.005% Triton X-100. Upon addition of 0.01% hydrogen peroxide and 10 mM O-phenylenediamine (final concentrations) in Tris buffer, increase in absorbance was monitored for one minute at 450 nm. The presence of eosonophils in the uterus is an indication of estrogenic activity of a compound. The maximal velocity of a 15 second interval was determined over the initial, linear portion of the reaction curve.
As is expressed in the data below, estrogenicity also was assessed by evaluating the adverse response of eosinophil infiltration into the uterus.
as §4

Assay [7] has as its system MCF-7 breast adenocarcinoma cells. Put plainly: MCF-7 Proliferation Assay (tritiated thymidine). Type of assay: cell-based. To be noted: Homo sapiens, MCF7, 48 hours, read-out: IC50. On the procedure: MCF-7 breast adenocarcinoma cells (ATCC HTB 22) were maintained in MEM (minimal essential medium, phenol red-free, Sigma, St. Louis, Mo.) supplimented with 10% fetal bovine serum (FBS) (V/V), L-glutamine (2 mM), sodium pyruvate (1 mM), HEPES {(N-[2-hydroxyethyl]piperazine-N'-[2-ethanesulfonic acid]10 mM}, non-essential amino acids and bovine insulin (1 ug/mL) (maintenance medium). Ten days prior to assay, MCF-7 cells were switched to maintenance medium supplemented with 10% dextran coated charcoal stripped fetal bovine serum (DCC-FBS) assay medium) in place of 10% FBS to deplete internal stores of steroids. MCF-7 cells were removed from maintenance flasks using cell dissociation medium (Ca++/Mg++ free HBSS (phenol red-free) supplemented with 10 mM HEPES and 2 mM EDTA). Cells were washed twice with assay medium and adjusted to 80,000 cells/mL. Approximately […] (8,000 cells) were added to flat-bottom microculture wells (Costar 3596) and incubated at 37° C. in a 5% CO2 humidified incubator for 48 hours to allow for cell adherence and equilibration after transfer. Serial dilutions of drugs or DMSO as a diluent control were prepared in assay medium and […] to triplicate microcultures followed by […] assay medium for a final volume of […]. After an additional 48 hours at 37° C. in a 5% CO2 humidified incubator, microcultures were pulsed with tritiated thymidine (1 uCi/well) for 4 hours. Cultures were terminated by freezing at -70° C. for 24 hours followed by thawing and harvesting of microcultures using a Skatron Semiautomatic Cell Harvester. Samples were counted by liquid scintillation using a Wallac BetaPlace b counter. Results in Table 4 below show the IC50 for certain compounds of the instant invention. […]

Where [8] appears, read: orally administered at 0.1 mg/kg/day.

In the case of `C#C[C@]1(O)CC[C@H]2[C@@H]3CCc4cc(O)ccc4[C@H]3CC[C@@]21C` [EE2, 17a-ethynyl estradiol, reference compound], the “serum cholesterol (in words)” value in assay [1] (setting [8]) was “caused a decrease in serum cholesterol”. Also, the “uterine weight (in words)” value in assay [2] (setting [8]) is given as “substantially greater than the uterine weight of ovariectomized test animals”. Also, the “Distal Femur Metaphysis (X-ray Image Analysis-Gray Score), percent protection relative to ovariectomy” value in assay [3] is on record as 80.7%. In addition, the “Proximal Tibiae Total Bone Mineral Density (Quantitative Computed Tomography), percent protection relative to ovariectomy” value in assay [4] (0.1 mg/kg oral) is given as 59.4%. Besides, in assay [5], the “prevention of bone loss (in words)” value is listed as “prevented this loss”.

In the case of `O=C(c1ccc(OCCN2CCCCC2)cc1)c1c(-c2cccc(O)c2)sc2cc(O)ccc12` [Example 12, [2-(3-Hydroxyphenyl)-6-hydroxybenzo[b]thien-3-yl][4-[2-(1-piperidinyl)ethoxy]phenyl]methanone], the inhibition in vivo at 0.1 mg/kg in assay [1] (Rattus norvegicus, 96 h, 0.1 mg/kg PO, read-out: Serum Cholesterol (% decrease vs. OVX)) amounted to 24.3%. The inhibition in vivo at 1 mg/kg in assay [1] (Rattus norvegicus, 96 h, 1.0 mg/kg PO, read-out: Serum Cholesterol (% decrease vs. OVX)) worked out at 52.3%. Moreover, the inhibition in vivo at 10 mg/kg in assay [1] (Rattus norvegicus, 96 h, 10.0 mg/kg PO, read-out: Serum Cholesterol (% decrease vs. OVX)) came to 49.1%. Besides, in assay [2] (Rattus norvegicus, 96 h, 0.1 mg/kg PO, read-out: Uterine weight (% increase vs. OVX)), the change in vivo at 0.1 mg/kg amounted to 15.5%. Moreover, in assay [2] (Rattus norvegicus, 96 h, 1.0 mg/kg PO, read-out: Uterine weight (% increase vs. OVX)), the change in vivo at 1 mg/kg stood at 22.7%. In addition, the change in vivo at 10 mg/kg in assay [2] (Rattus norvegicus, 96 h, 10.0 mg/kg PO, read-out: Uterine weight (% increase vs. OVX)) was 16.7%. Also, the “Uterine EPO (Vmax)” value in assay [6] (0.1 mg/kg PO) is 2.0; in assay [6] (1.0 mg/kg PO), 2.6; in assay [6] (10.0 mg/kg PO) it was 2.4. For the same compound, the “Proximal Tibiae Total Bone Mineral Density (Quantitative Computed Tomography), percent protection relative to ovariectomy” value in assay [4] (0.1 mg/kg oral) was -30.9%; in assay [4] (1.0 mg/kg oral), 51.5%; in assay [4] (10.0 mg/kg oral), 79.7%. For the same compound, the IC50 in assay [7] is 3.2 nM.

As usually defined, the IC50 is the concentration at which inhibition is half-maximal.
